Laboratory results taken from ChEMBL document CHEMBL3507680, “University of Dundee, Gates Library screen for HepG2 cell viability”.

Test: Human HepG2 cell viability assay in 384 well format
Format: toxicity, cell-based
Set-up: dose 125 nL, time 70.5 hour; cytotoxicity at 70.5 h: concentration not given beside the values
Conditions: HepG2 cells, read-out: Inhibition

SMILES | cytotoxicity at 70.5 h
CCSCCC(C)N(C)C(=O)c1cc(C)no1 (stereo not drawn) | -2.61%
COCC1CN(CC2CC2)Cc2nn(C)cc21 (stereo not drawn) | 13.1%
CCOCC1CN(c2ccc(C)nn2)Cc2nn(CC)cc21 (stereo not drawn) | -7%
CC1CN(C)CCN1C(=O)Nc1nc(-c2ccco2)cs1 (stereo not drawn) | -13.7%
Cc1nc(CN2CCCN(C(=O)COCC3CC3)CC2)cs1 | -2.01%
CN(Cc1nc(CC2CC2)no1)CC1Cc2ccccc2O1 (stereo not drawn) | -6.88%
CCN(c1ccc(C(=O)N2CCCCCC2)cc1)S(=O)(=O)CC | -2.32%
Cc1cc(C)n(-c2cncc(NCCNC(=O)C3CCCC3)n2)n1 | -9.3%
COc1ccc(-c2cc3nn(CC(=O)NC(C)C)c(=O)n3c(C)n2)cc1 | 1.34%
Cc1csc(N2CCN(C(=O)C(C)n3cncn3)CC2)n1 (stereo not drawn) | 0.112%
Cc1nc(CN2C[C@@H]3CN(C(=O)c4ccco4)C[C@@H]3C2=O)cs1 | -3.99%
CC(C)c1ccccc1NC(=O)N1C[C@@H]2CC[C@H](C1)N(C)C2=O | 27.2%
Cc1ccc(CN2CCN(c3ccc(F)cn3)CC2=O)cc1C | -3.51%
Cc1[nH]c(=O)[nH]c(=O)c1CN1CCCC(CCc2ccccc2F)C1 (stereo not drawn) | -5.63%
O=C(O)c1c(-c2ccncc2)ncc2c1CCN(C1CCOC1)C2 (stereo not drawn) | -9.17%
CCOc1nnc(CN(CC)CC(=O)Nc2c(F)cccc2F)s1 | -5.55%
CC(C)n1nnc(CC(=O)NCC2(c3cccc(F)c3)CCCC2)n1 | 15.1%
CCc1nc2n(n1)CC(NCc1noc(-c3ccccc3)n1)CC2 (stereo not drawn) | 12.2%
CC(=O)N1CCCN(C(=O)Cc2ccc3c(c2)OCO3)CC1 | -14.3%
O=C(NCCN1CCCCCC1)c1cccc(Cl)c1Cl | 1.51%
CCNc1cc2c(nn1)CCN(C(=O)c1nccnc1N)C2 | -2.38%
CCn1cc(S(=O)(=O)NC2CCCN(CCCc3ccccc3)C2)cn1 (stereo not drawn) | -1%
O=C(CCc1nnc(-c2ccccc2)o1)N1CCN(CC2CC2)CC1 | 1.86%

SMILES | cytotoxicity at 70.5 h
Cc1cccc(C(=O)N2CCCC2)c1NCC(=O)NC1(C#N)CCCC1 | -4.19%
O=C(c1ccnnc1)N1CCC2(CC1)CN(c1ccccn1)CCO2 | -10.9%
N#Cc1ccccc1C(=O)N1C[C@H]2CC[C@@H]1CN(Cc1ccccc1)C2 | -13.1%
Cc1ccc(CN2CCCn3nnc(COCCN(C)C)c3C2)s1 | -16%
COc1ccc(C)cc1NC(=O)Nc1cnc(N2CCCC2)nc1 | 1.09%
CC(C)c1nnc2n1CCN(CCS(=O)(=O)c1ccccc1)C2 | -2.01%
CCCN1CCN(C(=O)c2cnc(C)nc2)[C@H]2CS(=O)(=O)C[C@H]21 | -0.0232%
Cc1nn(C)c2c(=O)n(CC(=O)NCc3ccccc3Cl)ccc12 | 8.11%
CC(C)(C)c1noc(CN2CCCN(Cc3cccs3)CC2)n1 | -3.44%
CCN(CC1CN(CCc2ccccn2)CCO1)c1cccnn1 (stereo not drawn) | -3.03%
CN(C(=O)CCc1cccs1)C1CCCN(C2Cc3ccccc3C2)C1 (stereo not drawn) | -1.24%
c1cncc(CO[C@H]2CO[C@@]3(CCN(Cc4ccoc4)C3)C2)c1 | -20.1%
COC(=O)CNC(=O)c1c(-n2cnnn2)sc2c1CCCC2 | -14.5%
CCc1nc(CC(=O)N2CCn3c(nnc3C(F)(F)F)C2)cs1 | -7.01%
COC(=O)c1ccc(CN(C)C(=O)c2cnsn2)cc1 | -14.6%
COc1cc2c(cc1CNC(=O)Cc1ccc(C)nc1)OC(C)C2 (stereo not drawn) | -6.1%
CS(=O)(=O)N1CCN(C(=O)c2ccco2)[C@H]2CS(=O)(=O)C[C@H]21 | 15.1%
O=C(Cn1cc(C(=O)O)ccc1=O)Nc1ccc(Cl)cc1F | -38%
Cc1cnc(C(=O)N2CCN(Cc3csc(C)n3)CC2)cn1 | -6.71%
CCc1noc(C)c1C(=O)N1CCCC1c1c(C)nn(C)c1OC (stereo not drawn) | 18%
COc1c(CNC2CCc3c(F)cccc32)c(C)nn1C (stereo not drawn) | -7.24%
Cn1ncc2c(N3CC[C@H](O)C3)nc(-c3ccncc3)nc21 | -15.7%
CN1CCCN(CC(=O)N2CCc3[nH]c(-c4ccccc4)nc3C2)CC1 | -1.3%

SMILES | cytotoxicity at 70.5 h
CCC(COC)NC(=O)N1CCC(n2ccc(C(F)(F)F)n2)CC1 (stereo not drawn) | -104%
CN1CCN(C(=O)NC2CCCC2)Cc2cccnc21 | -4.32%
Cc1cc2n(n1)CC(CNC1CCN(C(=O)C3CC3)CC1)CN2 (stereo not drawn) | 16.7%
CN(c1ccc(F)cc1)S(=O)(=O)c1cc2c(c(C(=O)O)c1)OCCO2 | -10.5%
COCC(=O)N1CCN(C(=O)CCc2ccsc2)CC1 | -3.39%
O=C(NCC1CCOC1)c1csc(-c2ccco2)n1 (stereo not drawn) | 21.2%
Cc1ccccc1CNC(=O)N1CCC(n2cncn2)CC1 | -5.36%
CNC(=O)c1cc2c(nc1NCC(C)C)CCN(S(C)(=O)=O)CC2 | -5.11%
CCCOCC1CCN(C(=O)Cn2ncc(N3CCCC3)cc2=O)C1 (stereo not drawn) | 26.8%
COc1cnc(CSc2nnc(C)s2)cc1OCC(=O)NC(C)(C)C | -7.68%
c1ccc(NCc2ccc(Cn3ccnc3)cc2)nc1 | 41.7%
CCN1CCCC1(C)c1nc(C)cc(N)n1 (stereo not drawn) | -10.7%
CC(C)NC(=O)NCCn1cnc(C2CCCC2)cc1=O | -6.52%
COC(=O)CCC(=O)N1CCc2nc(C(=O)N3CCOCC3)sc2CC1 | 1.24%
Cc1nccn1-c1cc(CNC(=O)c2ccnc(N(C)C)c2)ccn1 | -10.5%
Cn1cc(-c2ncc3c(c2C(=O)O)CCN(Cc2ccccn2)C3)cn1 | -1.31%
CC(=O)N1C[C@@H]2CC[C@H](C1)N(S(=O)(=O)c1ccc(C#N)cc1Cl)C2 | -12.7%
CN(CCN1CCN(c2ccccc2)CC1)C(=O)Nc1ccccn1 | 17.7%
CNC(=O)c1csc(-c2cccnc2)n1 | 2.96%
CCn1c(C)nnc1CN(C)C1CCN(CC2CCC2)C1 (stereo not drawn) | 26.1%
CC(C)CS(=O)(=O)N1C[C@H]2C[C@H](C(=O)NCc3ccccc3)[C@@H](C1)O2 | -7.71%
Cc1nc(CN2C(=O)COC3(CCN(Cc4ccsc4)CC3)C2C)cs1 (stereo not drawn) | -1.09%
O=C(c1n[nH]c2c1CCC2)N1CCCC1c1nc(-c2ccccc2)no1 (stereo not drawn) | -1.83%

SMILES | cytotoxicity at 70.5 h
CCN(CC)S(=O)(=O)CC(=O)N1CCc2ccc(F)cc21 | -2.84%
O=C(NC1CC1)c1ccn(COc2c(Cl)cccc2Cl)n1 | -14.6%
CSc1ccc(C(CNC(=O)C2CC2)N2CCc3sccc3C2)cc1 (stereo not drawn) | -2.83%
c1cncc(COC[C@@H]2CCC[C@]23CNCCO3)c1 | 0.77%
CNC(=O)[C@@H]1C[C@@H](N)CN1C1CCN(c2ccccc2F)CC1 | -7.57%
Cc1nccn1CCC(=O)N1CCCN(CCCc2ccccc2)CC1 | 1.37%
Cc1nc2ccccc2c(=O)n1CCC(=O)N1CCCC1 | -6.75%
COCCN1CCN(Cc2coc(-c3ccccc3Cl)n2)CC1 | -10.2%
Cn1cccc1-c1cc(C(=O)N2CC(c3cccnc3)C2)[nH]n1 | -5.83%
CN(CCn1cnnc1)S(=O)(=O)c1ccc(C(F)(F)F)nc1 | -15.6%
CC(C)c1nccc(CN2CCCC(O)(CN(C)C)CC2)n1 (stereo not drawn) | -7.74%
Cc1cc(CN(C)C(=O)NCc2ccnc(OC3CCCC3)c2)no1 | -3.22%
CCS(=O)(=O)N1CCO[C@H]2[C@H](OCCCn3cccn3)CC[C@@H]21 | -9.45%
O=C1CC2(CCN(C(=O)C3CCCCC3)C2)Nc2ccccc2N1 (stereo not drawn) | -9.46%
CCCOc1cccc(OCc2ccon2)c1 | -7.15%
Cc1cccc(CN2CCCC2(C(N)=O)c2cnccn2)n1 (stereo not drawn) | 19%
Cc1nc(NC2CCCC2)cc(C2CCN2c2ncccn2)n1 (stereo not drawn) | -5.59%
CC(C)(C)c1cc(=O)n2c(n1)SCC(C(=O)NCc1ccco1)C2 (stereo not drawn) | 29.2%
Cc1nc(C)n(CC2CN(Cc3ccncc3)Cc3nccn3C2)n1 (stereo not drawn) | -4.22%
Cc1nc(C)n(CC2CN(Cc3cccs3)Cc3nccn3C2)n1 (stereo not drawn) | -0.931%
CC(NC(=O)CCCC(=O)c1cccs1)c1nnc2n1CCC2 (stereo not drawn) | -9.34%
Cc1ccc(NC(=O)Nc2c[nH]c(=O)[nH]c2=O)c(C)c1 | 11.8%
CCOc1ncccc1NC(=O)N1CCN(c2ccc(O)cc2)CC1 | 1.58%

SMILES | cytotoxicity at 70.5 h
COCCNC(=O)C1(Cc2ccccc2-c2ccncc2)CCOCC1 | -9.35%
Cc1oncc1C(=O)NCc1cc(=O)n2c(n1)CN(C(C)C)CCC2 | -4.07%
O=C(COc1ccc2c(c1)CCC2)N1CCCC(n2cccn2)C1 (stereo not drawn) | 15.3%
COc1ncc(NCc2ccc(F)cc2)cc1C(N)=O | -6.54%
CCCc1n[nH]c(C2CN(CC(=O)N(C)Cc3ccco3)CCO2)n1 (stereo not drawn) | -6.63%
Nc1nc(CN2CCN(c3nccs3)CC2)cs1 | -5.16%
CCc1cn[nH]c1C1CCCN(C(=O)c2ncoc2C(C)C)C1 (stereo not drawn) | -2.87%
COC(=O)CNC(=O)c1cccc(C(=O)N(C)c2ccccc2)c1 | 30.5%
CS(=O)(=O)NC(=O)c1ccn(-c2ccc(Cl)c(Cl)c2)n1 | -3.09%
CC(C)n1c2ccccc2c2c1cc(C(=O)NCCO)n2C(=O)N(C)C | -4.08%
CC1CN(c2ccc(CNC(=O)NCc3ccoc3)cn2)CCO1 (stereo not drawn) | -5.8%
CC(C)(C)C(=O)N[C@H]1C[C@@H](Cc2cc(CN3CCOCC3)on2)C1(C)C | -6.62%
CN(C)[C@@H]1C[C@@H](CO)N(C(=O)Nc2cccc(F)c2F)C1 | 19.1%
COc1cccc(N2Cc3nc(=O)n(Cc4cccc(F)c4)n3C2=O)c1 | -20.7%
O=C(NCCN1CCOCC1)c1scnc1Cl | -15.1%
O=C(c1ccc(Br)o1)N1CCCC(n2cncn2)C1 (stereo not drawn) | -3.18%
CC(C)C(C)NC(=O)Nc1ccccc1CN1CCOCC1 (stereo not drawn) | -8.46%
COCCNC(=O)NC1CCN(c2cnn(C)c2)C1 (stereo not drawn) | -4.09%
O=C1CCCCN1CSc1nnnn1-c1ccc(Cl)cc1 | -4.94%
Cc1noc(CCCNC(=O)N2CCc3ccccc3C2CO)n1 (stereo not drawn) | 14.9%
CNC(=O)c1ccc(CN2CCN(C3=NCC(C)(C)S3)CC2)cc1 | 17.7%
